Measured values from patent publication EP4140481A1, “PROTEIN-OLIGOMER BINDING AGENTS AND THERAPEUTIC USES THEREOF” (Galyan Bio, Inc., priority 2021, dated 2023).

Legend:
[1] = target: T1, phospho-Tau (Ser404) (Mus musculus, UniProt P10637); experiment: Phospho-Tau (Ser404) immunocytochemistry in STHdh 7/7 cells; assay type: cell-based
T1 construct: host or cells: ST HDH Q7/7 mouse striatal cell line
Excerpt: Effect of Compound 4 on Phospho-Tau (Ser396) levels - ST HDH Q7/7 (CH00097, Coriell Institute) striatal derived cell line from a knock in transgenic mouse containing HTT loci with a humanized Exon 1 containing 7 polyglutamine repeats. Diffuse mHTT quantified with immunocytochemistry as described in Example 33 with the exception that instead of 3B5H10 antibody for staining mHTT, phospho-Tau (Ser404) polyclonal antibody (ThermoFisher, Catalog 44-758G) was used to stain phospho-Tau (Ser396) and no heat shock was used.

[2] = test system: STHdh 111/111; experiment: Morphology of striatal cells expressing mutated huntingtin; assay type: cell-based, mouse; conditions: treated versus not treated STHdh 111/111
[3] = target: T2, mHTT (Homo sapiens, UniProt P42858); experiment: mHTT levels in striatal cells (immunocytochemistry); assay type: cell-based, mouse; conditions: STHdh 111/111; MW1 primary antibody; non-linear regression; read-out: EC 50 value for mHTT reduction
T2 construct: host or cells: ST HDH Q111/111 mouse striatal cell line (knock-in locus)

[4] = Oral bioavailability; conditions: mouse, in vivo, mice
[5] = test system: mHTT; experiment: Immunohistochemistry of nuclear diffuse mHTT in brain tissue from the R6/2 study; assay type: in vivo, R6/2 mice; conditions: 33 mg/kg i.p. QD; treated animals n= 9 versus vehicle treated TG mice; p = 0.01
Experimental: Preparation of Immunohistology slides - Brain tissue collected within the animal study was prepared for IHC studies by Charles River staff. The brains were fixed by immersion in 4% paraformaldehyde for at least 24 h after which brain samples were cryoprotected by 30% sucrose solution for 72 h. Finally, the brain samples were flash-frozen in liquid nitrogen and stored at -80 °C. The brain samples were cut using a microtome cryostat system, producing coronal brain tissue sections of 40 µm thickness. Those were mounted on individual adhesive-coated microscope glass slides with frosted ends.
Staining - Goat anti-Rabbit IgG (H+L) Alexa Fluor 647 (1:500, ThermoFisher Invitrogen) was used as a secondary antibody for binding to CBP antibody. […]
The blocking buffer was freshly prepared and consisted of PBS (Sigma-Aldrich) with 5% normal goat serum (NGS), 0.2% BSA, 0.2% lysine and 0.2% glycine. […] On day six, samples were washed and then incubated with DAPI containing mounting medium Fluoroshield (Sigma-Aldrich), in order to counterstain the nuclei and preserve the fluorescence. […]
Results - Figures 23A-23F show the distinction of inclusion bodies (IB) and diffuse species of mHTT by confocal fluorescence imaging. […] Consequently, this distinction of diffuse mHTT and IBs was implemented in the analysis macro to quantify the different species of mHTT within striatum and cortex of R6/2 mice. […]

T1 sequence (P10637 whole entry): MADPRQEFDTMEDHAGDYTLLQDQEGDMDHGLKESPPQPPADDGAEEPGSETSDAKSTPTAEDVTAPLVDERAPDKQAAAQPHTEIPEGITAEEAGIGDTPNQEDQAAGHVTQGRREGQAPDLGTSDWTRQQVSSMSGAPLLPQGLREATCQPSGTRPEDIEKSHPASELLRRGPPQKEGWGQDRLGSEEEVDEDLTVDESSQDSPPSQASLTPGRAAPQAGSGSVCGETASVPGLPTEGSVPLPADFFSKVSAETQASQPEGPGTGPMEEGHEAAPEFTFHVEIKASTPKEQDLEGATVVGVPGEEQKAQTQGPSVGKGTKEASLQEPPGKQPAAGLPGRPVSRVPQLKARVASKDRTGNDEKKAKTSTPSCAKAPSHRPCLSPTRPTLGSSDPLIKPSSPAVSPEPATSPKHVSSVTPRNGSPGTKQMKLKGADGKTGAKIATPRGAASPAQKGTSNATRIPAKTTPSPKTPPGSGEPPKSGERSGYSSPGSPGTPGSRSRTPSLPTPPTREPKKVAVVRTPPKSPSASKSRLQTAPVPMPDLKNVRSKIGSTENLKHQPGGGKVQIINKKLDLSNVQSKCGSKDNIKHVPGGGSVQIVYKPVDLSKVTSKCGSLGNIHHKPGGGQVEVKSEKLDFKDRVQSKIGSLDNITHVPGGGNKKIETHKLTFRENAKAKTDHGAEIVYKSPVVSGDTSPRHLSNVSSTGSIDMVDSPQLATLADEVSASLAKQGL
T2 sequence (P42858 with tags, fused parts or gaps with the stated changes): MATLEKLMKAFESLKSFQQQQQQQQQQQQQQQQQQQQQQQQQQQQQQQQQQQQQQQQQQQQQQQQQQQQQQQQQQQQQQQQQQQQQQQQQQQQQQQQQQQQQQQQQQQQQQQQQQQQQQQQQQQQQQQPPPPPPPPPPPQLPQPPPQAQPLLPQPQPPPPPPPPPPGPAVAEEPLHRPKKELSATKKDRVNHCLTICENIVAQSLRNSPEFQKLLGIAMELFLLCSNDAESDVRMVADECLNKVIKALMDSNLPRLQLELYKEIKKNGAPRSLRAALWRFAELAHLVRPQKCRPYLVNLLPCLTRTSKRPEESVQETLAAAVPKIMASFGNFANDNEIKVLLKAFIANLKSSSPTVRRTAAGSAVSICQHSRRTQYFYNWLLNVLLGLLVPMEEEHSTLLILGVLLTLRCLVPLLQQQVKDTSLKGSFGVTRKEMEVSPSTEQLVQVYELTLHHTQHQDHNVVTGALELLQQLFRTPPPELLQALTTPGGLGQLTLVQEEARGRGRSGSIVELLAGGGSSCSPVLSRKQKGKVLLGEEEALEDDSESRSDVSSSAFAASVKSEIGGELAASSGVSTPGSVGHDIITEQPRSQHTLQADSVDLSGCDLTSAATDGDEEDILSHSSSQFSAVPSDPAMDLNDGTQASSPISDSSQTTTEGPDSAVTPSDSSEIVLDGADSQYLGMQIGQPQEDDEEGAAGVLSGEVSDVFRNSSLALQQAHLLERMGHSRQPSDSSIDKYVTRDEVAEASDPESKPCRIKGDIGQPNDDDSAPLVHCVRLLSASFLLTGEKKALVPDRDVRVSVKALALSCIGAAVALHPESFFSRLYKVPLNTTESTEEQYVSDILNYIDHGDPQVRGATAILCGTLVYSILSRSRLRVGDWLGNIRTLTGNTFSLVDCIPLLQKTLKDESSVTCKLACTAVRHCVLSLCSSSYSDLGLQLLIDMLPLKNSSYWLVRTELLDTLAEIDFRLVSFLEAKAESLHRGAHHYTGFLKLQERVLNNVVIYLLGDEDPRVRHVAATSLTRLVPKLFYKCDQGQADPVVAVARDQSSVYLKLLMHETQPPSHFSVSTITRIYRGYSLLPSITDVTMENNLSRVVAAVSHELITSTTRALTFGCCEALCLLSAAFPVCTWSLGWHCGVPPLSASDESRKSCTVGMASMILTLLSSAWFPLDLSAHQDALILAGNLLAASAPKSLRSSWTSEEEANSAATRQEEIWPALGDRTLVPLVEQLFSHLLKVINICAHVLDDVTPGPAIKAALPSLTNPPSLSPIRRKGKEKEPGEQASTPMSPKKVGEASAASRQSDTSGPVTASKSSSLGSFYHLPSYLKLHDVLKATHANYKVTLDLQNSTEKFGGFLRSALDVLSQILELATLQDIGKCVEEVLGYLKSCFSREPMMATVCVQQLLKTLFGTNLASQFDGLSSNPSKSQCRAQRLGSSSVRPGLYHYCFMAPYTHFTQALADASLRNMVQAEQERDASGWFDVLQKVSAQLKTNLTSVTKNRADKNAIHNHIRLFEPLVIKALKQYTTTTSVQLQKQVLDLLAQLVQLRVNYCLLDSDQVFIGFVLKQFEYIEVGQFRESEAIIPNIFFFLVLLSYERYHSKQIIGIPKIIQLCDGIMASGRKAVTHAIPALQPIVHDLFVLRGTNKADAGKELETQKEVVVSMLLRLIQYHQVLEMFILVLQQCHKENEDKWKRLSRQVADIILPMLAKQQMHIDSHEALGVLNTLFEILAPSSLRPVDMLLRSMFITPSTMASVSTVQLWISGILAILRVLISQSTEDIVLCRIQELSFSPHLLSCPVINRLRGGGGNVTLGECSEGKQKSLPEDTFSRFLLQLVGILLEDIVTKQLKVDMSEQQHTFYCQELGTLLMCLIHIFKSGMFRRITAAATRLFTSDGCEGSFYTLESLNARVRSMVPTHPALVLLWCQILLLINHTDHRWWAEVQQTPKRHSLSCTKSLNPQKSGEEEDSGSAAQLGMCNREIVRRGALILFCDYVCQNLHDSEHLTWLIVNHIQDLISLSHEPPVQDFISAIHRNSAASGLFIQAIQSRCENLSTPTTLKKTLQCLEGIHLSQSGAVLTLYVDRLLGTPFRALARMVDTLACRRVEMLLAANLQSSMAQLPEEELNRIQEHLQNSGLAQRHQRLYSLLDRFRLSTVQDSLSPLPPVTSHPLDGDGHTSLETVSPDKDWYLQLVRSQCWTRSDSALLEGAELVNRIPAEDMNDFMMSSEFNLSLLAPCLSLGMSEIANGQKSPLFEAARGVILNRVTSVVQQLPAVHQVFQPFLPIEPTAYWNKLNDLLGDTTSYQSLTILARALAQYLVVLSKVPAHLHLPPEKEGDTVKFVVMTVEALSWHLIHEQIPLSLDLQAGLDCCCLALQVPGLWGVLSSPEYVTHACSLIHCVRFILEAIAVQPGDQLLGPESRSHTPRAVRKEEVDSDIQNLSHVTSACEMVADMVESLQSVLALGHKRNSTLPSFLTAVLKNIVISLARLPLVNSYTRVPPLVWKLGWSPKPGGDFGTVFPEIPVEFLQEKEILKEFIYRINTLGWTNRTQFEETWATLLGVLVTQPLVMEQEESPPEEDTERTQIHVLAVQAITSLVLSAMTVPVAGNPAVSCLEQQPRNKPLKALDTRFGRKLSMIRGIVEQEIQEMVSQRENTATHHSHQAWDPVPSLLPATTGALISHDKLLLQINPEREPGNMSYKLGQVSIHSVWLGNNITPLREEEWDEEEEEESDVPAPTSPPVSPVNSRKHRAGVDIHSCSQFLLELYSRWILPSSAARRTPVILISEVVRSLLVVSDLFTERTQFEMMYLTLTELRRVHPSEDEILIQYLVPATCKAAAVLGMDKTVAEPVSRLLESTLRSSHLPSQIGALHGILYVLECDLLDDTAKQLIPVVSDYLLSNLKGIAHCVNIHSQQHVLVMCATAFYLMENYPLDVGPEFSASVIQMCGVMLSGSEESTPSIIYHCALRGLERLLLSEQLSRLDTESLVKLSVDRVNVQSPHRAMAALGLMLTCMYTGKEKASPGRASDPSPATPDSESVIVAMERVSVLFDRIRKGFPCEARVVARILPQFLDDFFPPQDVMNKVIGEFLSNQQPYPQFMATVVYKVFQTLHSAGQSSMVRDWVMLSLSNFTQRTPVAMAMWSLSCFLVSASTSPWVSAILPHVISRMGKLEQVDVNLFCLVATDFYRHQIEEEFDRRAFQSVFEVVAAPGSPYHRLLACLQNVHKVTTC

With CCc1c(C)[nH]c2ccc(C(=O)NCCN(CC)CC)cc12 [Compound 4, N-(2-(diethylamino)ethyl)-3-ethyl-2-methyl-1H-indole-5-carboxamide] the “Phospho-Tau (Ser404) reduction” value ([1]; 10 µM, no heat shock, versus untreated STHdh 7/7) was 40%, the “Phospho-Tau (Ser404) reduction with autophagy inhibitor” value ([1]; 10 mM ammonium chloride) was “could not reduce” and the cell morphology [2] was “improved cell viability, dendrite outgrowth and increased cell size”. The EC50 [3] was 130 nM.

With Cc1[nH]c2ccc(C(=O)NCCN(C(C)C)C(C)C)cc2c1C [Compound 22] the bioavailability [4] was 10% and the “Nuclear diffuse mHTT reduction in the cortex” value [5] was 40%.
